EP0456229A2, “Arylsulfatase” (Bristol-Myers Squibb Company, priority 1990, dated 1991)

Tests used:
[1] = compared with etoposide; cited from earlier work
Es-1 sulfatase [2] = test: Substrate specificity: hydrolysis of etoposide derivatives (TLC); type: biochemical, Streptomyces griseorubiginosus S980-14; conditions: 0.6 u enzyme, 50 mM Tris-HCl pH 7.5, 37°C for 18 hours, silica gel TLC
Protocol: • (a) Optimum pH. The stock enzyme solution (0.6 u in 50 µl of 50 mM Tris-HCl, pH 7.5) was added to 100 µl each of the following buffers: 500 mM sodium acetate (pH 4.0-5.5), 500 mM Tris-maleate (pH 5.5-7.5), 500 mM Tris-HCl (pH 7.5-9.0), and 500 mM glycine-NaoH (pH 9.0-10.0). The substrate, p-nitrophenylsulfate, was dissolved in each of the above buffers (1 mg/ml). The enzyme-buffer solution (150 µl) was mixed with 50 µl of the substrate solution in the same buffer as the enzyme, and the mixture was incubated for 30 minutes at 37°C. The reaction was quenched by addition of 100 µl of 0.2 N sodium hydroxide solution. The enzyme activity in each buffer was determined spectrophotometrically by UV at 415 nm. […] The stock enzyme solution was dialyzed against water to remove salts. The dialyzed solution (10 µl) was mixed with 40 µl of 50 mM Tris-HCl buffer (pH 7.5). An aliquot (10 µl) of this solution was mixed with 40 µl each of the buffer listed in (a) and incubated for 30 minutes at 30°C. To this solution (50 µl) were added 100 µl of 500 mM Tris-HCl (pH 9.0) and 50 µl of substrate in water (1 mg/ml), and the mixture was incubated at 37°C for 30 minutes to determine the residual enzyme activity. […] Enzyme (0.6 u) in 150 µl of 50 mM Tris-HCl (pH 8.5) was incubated with p-nitrophenylsulfate in the same buffer (1 mg/ml, 50 µl) for 30 minutes at various temperatures. […] Enzyme preparations (0.6 u) in 50 mM Tris-HCl (150 µl, pH 8.5) were incubated for 15 minutes at various temperatures and then cooled in an ice bath. p-Nitrophenylsulfate in the same buffer (1 mg/ml, 50 µl) was added to the enzyme solution, and the mixture was incubated for 30 minutes at 37°C. […] Fifty µl of enzyme solution (0.6 u in 50 mM Tris-HCl, pH 8.5), 80 µl of 50 mM Tris-HCl (pH 8.5), 50 µl of p-nitrophenyl sulfate (1 mg/ml in same buffer), and 20 µl of ion (10 mM) were mixed. The solution was incubated for 30 minutes at 37°C. p-Nitrophenol released was spectrophotometrically assayed by UV at 415 nm. […] The protocol used in (e) was followed with the exception that 1 mM of an enzyme inhibitor was used instead of a metal ion. […] The protocol used in (e) was followed, except that 5 mM of a salt was used instead of 10 mM of a metal ion. […] Four etoposide derivatives were tested as substrate for the sulfatase of the invention. The substrates are: etoposide 4'-sulfate (III), 2'',3''-di-O-acetyl-etoposide-4'-sulfate (IV), etoposide 2''-sulfate (V), and etoposide 3''-sulfate (VI). […] After 18 hours, 100 µl of methanol was added, and 100 µl of sample was analyzed on a silica gel TLC plate using a solvent system consisting of chloroform-methanol (10:1 v/v). […]

Es-1 sulfatase [3] = test: Substrate specificity: hydrolysis of BU-3285T (TLC, UV densitometry); type: biochemical, Streptomyces griseorubiginosus S980-14; conditions: 0.6 u Es-1 sulfatase, pH 8.5, 18 hours at 37°C, UV densitometry at 254 nm
Protocol: (§1) • (a) Optimum pH. The stock enzyme solution (0.6 u in 50 µl of 50 mM Tris-HCl, pH 7.5) was added to 100 µl each of the following buffers: 500 mM sodium acetate (pH 4.0-5.5), 500 mM Tris-maleate (pH 5.5-7.5), 500 mM Tris-HCl (pH 7.5-9.0), and 500 mM glycine-NaoH (pH 9.0-10.0). The substrate, p-nitrophenylsulfate, was dissolved in each of the above buffers (1 mg/ml). The enzyme-buffer solution (150 µl) was mixed with 50 µl of the substrate solution in the same buffer as the enzyme, and the mixture was incubated for 30 minutes at 37°C. The reaction was quenched by addition of 100 µl of 0.2 N sodium hydroxide solution. The enzyme activity in each buffer was determined spectrophotometrically by UV at 415 nm. […] The stock enzyme solution was dialyzed against water to remove salts. The dialyzed solution (10 µl) was mixed with 40 µl of 50 mM Tris-HCl buffer (pH 7.5). An aliquot (10 µl) of this solution was mixed with 40 µl each of the buffer listed in (a) and incubated for 30 minutes at 30°C. To this solution (50 µl) were added 100 µl of 500 mM Tris-HCl (pH 9.0) and 50 µl of substrate in water (1 mg/ml), and the mixture was incubated at 37°C for 30 minutes to determine the residual enzyme activity. […] After 18 hours, 100 µl of methanol was added, and 100 µl of sample was analyzed on a silica gel TLC plate using a solvent system consisting of chloroform-methanol (10:1 v/v). […]

Es-1 sulfatase [4] = test: Effect of salts on sulfatase activity; type: biochemical, Streptomyces griseorubiginosus S980-14; conditions: 5 mM of a salt, 30 minutes at 37°C, pH 8.5
Protocol: as §1

Es-1 sulfatase [5] = test: Effect of ions / EDTA treatment and Ca2+ recovery of sulfatase activity; type: biochemical, Streptomyces griseorubiginosus S980-14
Protocol: • (a) Optimum pH. The stock enzyme solution (0.6 u in 50 µl of 50 mM Tris-HCl, pH 7.5) was added to 100 µl each of the following buffers: 500 mM sodium acetate (pH 4.0-5.5), 500 mM Tris-maleate (pH 5.5-7.5), 500 mM Tris-HCl (pH 7.5-9.0), and 500 mM glycine-NaoH (pH 9.0-10.0). The substrate, p-nitrophenylsulfate, was dissolved in each of the above buffers (1 mg/ml). The enzyme-buffer solution (150 µl) was mixed with 50 µl of the substrate solution in the same buffer as the enzyme, and the mixture was incubated for 30 minutes at 37°C. The reaction was quenched by addition of 100 µl of 0.2 N sodium hydroxide solution. The enzyme activity in each buffer was determined spectrophotometrically by UV at 415 nm. […] The stock enzyme solution was dialyzed against water to remove salts. The dialyzed solution (10 µl) was mixed with 40 µl of 50 mM Tris-HCl buffer (pH 7.5). An aliquot (10 µl) of this solution was mixed with 40 µl each of the buffer listed in (a) and incubated for 30 minutes at 30°C. To this solution (50 µl) were added 100 µl of 500 mM Tris-HCl (pH 9.0) and 50 µl of substrate in water (1 mg/ml), and the mixture was incubated at 37°C for 30 minutes to determine the residual enzyme activity. […] Enzyme (0.6 u) in 150 µl of 50 mM Tris-HCl (pH 8.5) was incubated with p-nitrophenylsulfate in the same buffer (1 mg/ml, 50 µl) for 30 minutes at various temperatures. […] Enzyme preparations (0.6 u) in 50 mM Tris-HCl (150 µl, pH 8.5) were incubated for 15 minutes at various temperatures and then cooled in an ice bath. p-Nitrophenylsulfate in the same buffer (1 mg/ml, 50 µl) was added to the enzyme solution, and the mixture was incubated for 30 minutes at 37°C. […] Fifty µl of enzyme solution (0.6 u in 50 mM Tris-HCl, pH 8.5), 80 µl of 50 mM Tris-HCl (pH 8.5), 50 µl of p-nitrophenyl sulfate (1 mg/ml in same buffer), and 20 µl of ion (10 mM) were mixed. […] After 18 hours, 100 µl of methanol was added, and 100 µl of sample was analyzed on a silica gel TLC plate using a solvent system consisting of chloroform-methanol (10:1 v/v). […]

## COc1cc([C@@H]2c3cc4c(cc3[C@@H](O[C@@H]3O[C@@H]5CO[C@@H](C)O[C@H]5[C@H](O)[C@H]3O)[C@H]3COC(=O)[C@H]23)OCO4)cc(OC)c1OS(=O)(=O)O [(III), etoposide 4'-sulfate]
[1]
  cytotoxicity: much less cytotoxic than etoposide itself
Es-1 sulfatase [2]
  substrate for the enzyme: are substrates

## COc1cc(C2c3cc4c(cc3C(OC3OC5COC(C)OC5C(OC(C)=O)C3OC(C)=O)C3COC(=O)C23)OCO4)cc(OC)c1OS(=O)(=O)O (centres unmarked) [(IV), 2'',3''-di-O-acetyl-etoposide-4'-sulfate]
Es-1 sulfatase [2]
  substrate for the enzyme: are substrates

## COc1cc(C2c3cc4c(cc3C(OC3OC5COC(C)OC5C(O)C3OS(=O)(=O)O)C3COC(=O)C23)OCO4)cc(OC)c1O (centres unmarked) [(V), etoposide 2''-sulfate]
Es-1 sulfatase [2]
  substrate for the enzyme: are not

## CCCCC/C=C/C=C\C=C/C(O)C(C)C(C/C=C/C1OC(=O)C=CC1O)OS(=O)(=O)O (centres unmarked) [BU-3285T]
Es-1 sulfatase [3]
  conversion to its desulfated derivative: approximately 70%

## [Cl-].[Na+] [sodium chloride]
Es-1 sulfatase [4]
  sulfatase activity (effect of salts): strongly inhibited

## O=P(O)(O)O [phosphate ion]
Es-1 sulfatase [4]
  sulfatase activity (effect of salts): strongly inhibited

## O=C(O)CN(CCN(CC(=O)O)CC(=O)O)CC(=O)O [EDTA]
Es-1 sulfatase [5]; enzyme treated with 10 mM of EDTA followed by dialysis against water at 4°C
  sulfatase activity: disappeared

## [Ca+2] [Ca⁺⁺]
Es-1 sulfatase [5]; addition of 1 mM of Ca⁺⁺ to the EDTA treated enzyme
  sulfatase activity restored: 95%
Es-1 sulfatase [5]; calcium ion concentrations over 1 mM added to EDTA treated enzyme
  sulfatase activity level: close to the original level

## COc1cc(C2c3cc4c(cc3C(OC3OC5COC(C)OC5C(OS(=O)(=O)O)C3O)C3COC(=O)C23)OCO4)cc(OC)c1O (centres unmarked) [(VI), etoposide 3''-sulfate]
Es-1 sulfatase [2]
  substrate for the enzyme: are not
